# Paper PMC8476002, “Bergamottin a CYP3A inhibitor found in grapefruit juice inhibits prostate cancer cell growth by downregulating androgen receptor signaling and promoting G0/G1 cell cycle block and apoptosis” (PLoS ONE, 2021)
# Key:
# Type in all cases: cell-based, human
# [1] = tested on: LNCaP cells; experiment: Clonogenic assay, LNCaP; details: 5μM and 10μM, 3 weeks
# Protocol: (§1) For clonogenic assay, cells were plated in 6 well plates (10,000 cells) for 48 h and then treated with indicated amounts of bergamottin and vehicle control (DMSO). After 3 weeks, the colonies were fixed, stained (0.75% crystal violet, 50% ethanol and 1.75% formaldehyde) and counted. The assay was repeated three times.
# [2] = tested on: AR nuclear localization in LNCaP cells; experiment: Confocal microscopy of AR nuclear localization, LNCaP; details: bergamottin 10μM, versus DMSO
# Protocol: Cells were seeded into 35 mm Glass bottom dish (Cellvis catalog# D35C4-20-1.5-N) in complete media; media was changed to CSSM prior to DHT treatment. The cells were fixed in 4% paraformaldehyde for 20 minutes and permeabilized using permeabilizing buffer (0.2% Tween 20 in PBS) for 5 minutes. Cells were blocked using 10% goat serum diluted in permeabilizing buffer with 1% BSA for 15 minutes. Primary antibodies were diluted at 1:100 in staining buffer (1% BSA in PBS) and incubated for 2 hours at room temperature. Cells were washed three times (5 minutes each) in PBS. Secondary antibodies, TRITC-conjugated Donkey Anti-rabbit (711-025-152) was from Jackson immuno research, West Grove, PA was diluted at 1:100 in staining buffer and incubated for 60 minutes at room temperature. Cells were washed three times (5 minutes) in PBS and stained with 1 μg/mL DAPI (4’, 6-diamidino-2-phenylindole) in PBS for 5 minutes at room temperature. The cells were stored in PBS at 4°C until imaging was completed.
# Cells were imaged using confocal laser scanning microscopy on a Nikon A1R using a galvano scanner and a 60× Apo-TIRF oil immersion objective. NIS Elements software form Nikon was used for recording the data.
# [3] = tested on: MDAPCa2b cells; experiment: Cell cycle analysis (propidium iodide, flow cytometry), MDAPCa2b
# Protocol: Cell cycle analysis was performed after staining the cells with propidium iodide (PI). For long term bergamottin treatment (96 hrs.) cells were plated at 25–30% confluence and for short term bergamottin treatment (48 hrs.) they were plated at 30–35% confluence. After completion of specified treatment the cells were trypsinized washed with PBS and fixed in 70% ethanol and then stained with PI in nicoletti buffer (propidium iodide 50 μg/ml, 0.1% sodium citrate, 0.1% triton X-100, RNase 1 mg/ml, in DPBS). Cells were analyzed using C6 Accuri flow cytometer (Becton Dickinson, Mountainview, CA). FlowJo software was used to gate and remove the debris (gate on SSC and FSC) and aggregates (FL2 A and FL2H) from the analysis. Watson pragmatic and Dean-Jett -Fox methods was used to assign percentage frequencies to cells present in the different cell cycle stages.
# [4] = tested on: MDAPCa2b cells; experiment: Clonogenic assay, MDAPCa2b; details: 5μM and 10μM, 3 weeks
# Protocol: as §1
# [5] = tested on: total AR in LNCaP cells; experiment: Western blotting of total AR, LNCaP; details: bergamottin 10μM, CSSM
# Protocol: (§2) Cells were plated at 25–30% confluence when maintained in complete media. When the cells required DHT tretment and media replacement to charcoal stripped serum media (CSSM) they were plated at 35–40% confluence. Bergamottin is dissolved in DMSO (vehicle control) and the amount of DMSO at each treatment group was kept constant. After the completion of the treatment cells were washed in phosphate buffer (PBS) containing 2mMEDTA and 2mM EGTA and lysed in RIPA buffer (50 mM TRIS, 150 mM NaCl, 1% NP40, 0.5% sodium deoxycholate, 0.1% SDS, 2mM EDTA, 2mM EGTA) supplemented with protease and phosphatase inhibitors for total protein isolation. Protein estimation was performed using micro BCA assay and equal protein amponts were loaded on SDS-PAGE gels for western analysis. GAPDH was used as an internal control for total protein. Infrared fluorescent-labeled secondary antibodies were used for detection using Odyssey CLx. The bands were quantified using Odyssey software, which calculates pixel density and automatically takes an area adjacent to each band for background corrections.
# [6] = tested on: cell cycle regulating proteins in MDAPCa2b cells; experiment: Western blot of cell cycle regulating proteins, MDAPCa2b; details: for CDK2, normalized fold change after GAPDH calibration / CDK4, normalized fold change after GAPDH calibration / CDK6, normalized fold change after GAPDH calibration / Cyclin A, normalized fold change after GAPDH calibration / Cyclin B1, normalized fold change after GAPDH calibration / Cyclin D1, normalized fold change after GAPDH calibration / Cyclin D3, normalized fold change after GAPDH calibration / Cyclin E, normalized fold change after GAPDH calibration / Myt 1, normalized fold change after GAPDH calibration / P-Wee1, normalized fold change after GAPDH calibration / P-cdc2, normalized fold change after GAPDH calibration / P-histone H3, normalized fold change after GAPDH calibration / p21, normalized fold change after GAPDH calibration / p27, normalized fold change after GAPDH calibration: 48 hrs., 0 μM = 100
# Protocol: as §2, with “corrections. […]” for “corrections.”
smiles,measurement,setting,value
CC(C)=CCC/C(C)=C/COc1c2ccoc2cc2oc(=O)ccc12 [bergamottin],number of colonies,[1],significantly reduced the number of colonies
same,active AR migration to the nucleus with DHT induction (confocal),[2],significantly reduced
same,"G1 frequency, Dean-Jett-Fox","[3]; Berg 5μM, 96 hrs.",84.2 ±1.5%
same,"G2 frequency, Dean-Jett-Fox","[3]; Berg 5μM, 96 hrs.",2.3 ±2.2%
same,"G2 frequency, Watson Pragmatic","[3]; Berg 5μM, 96 hrs.",8.4 ±1.6%
same,"S frequency, Dean-Jett-Fox","[3]; Berg 5μM, 96 hrs.",12.2 ±1.0%
same,"S frequency, Watson Pragmatic","[3]; Berg 5μM, 96 hrs.",7.7 ±2.6%
same,"G1 frequency, Dean-Jett-Fox","[3]; Berg 10μM, 96 hrs.",88.8 ±2.0%
same,"G2 frequency, Dean-Jett-Fox","[3]; Berg 10μM, 96 hrs.",3.3 ±0.3%
same,"G2 frequency, Watson Pragmatic","[3]; Berg 10μM, 96 hrs.",6.6 ±1.2%
same,"S frequency, Dean-Jett-Fox","[3]; Berg 10μM, 96 hrs.",7.4 ±2.5%
same,"S frequency, Watson Pragmatic","[3]; Berg 10μM, 96 hrs.",5.8 ±2.8%
same,"G1 frequency, Dean-Jett-Fox","[3]; Berg 20μM, 48 hrs.",84.9 ±0.4%
same,"G2 frequency, Dean-Jett-Fox","[3]; Berg 20μM, 48 hrs.",9.6 ±0.5%
same,"G2 frequency, Watson Pragmatic","[3]; Berg 20μM, 48 hrs.",9.6 ±1.8%
same,"S frequency, Dean-Jett-Fox","[3]; Berg 20μM, 48 hrs.",6.7 ±0.7%
same,"S frequency, Watson Pragmatic","[3]; Berg 20μM, 48 hrs.",7.1 ±1.7%
same,"G1 frequency, Dean-Jett-Fox","[3]; Berg 30μM, 48 hrs.",88.4 ±3.6%
same,"G2 frequency, Dean-Jett-Fox","[3]; Berg 30μM, 48 hrs.",6.8 ±3.2%
same,"G2 frequency, Watson Pragmatic","[3]; Berg 30μM, 48 hrs.",8.4 ±1.1%
same,"S frequency, Dean-Jett-Fox","[3]; Berg 30μM, 48 hrs.",3.3 ±3.4%
same,"S frequency, Watson Pragmatic","[3]; Berg 30μM, 48 hrs.",5.6 ±0.5%
same,number of colonies,[4],significantly reduced the number of colonies
same,downregulation of total AR levels,[5],50%
same,"CDK2, normalized fold change after GAPDH calibration",[6]; Bergamottin 20 μM,63
same,"CDK4, normalized fold change after GAPDH calibration",[6]; Bergamottin 20 μM,90
same,"CDK6, normalized fold change after GAPDH calibration",[6]; Bergamottin 20 μM,108
same,"Cyclin A, normalized fold change after GAPDH calibration",[6]; Bergamottin 20 μM,86
same,"Cyclin B1, normalized fold change after GAPDH calibration",[6]; Bergamottin 20 μM,52
same,"Cyclin D1, normalized fold change after GAPDH calibration",[6]; Bergamottin 20 μM,106
same,"Cyclin D3, normalized fold change after GAPDH calibration",[6]; Bergamottin 20 μM,55
same,"Cyclin E, normalized fold change after GAPDH calibration",[6]; Bergamottin 20 μM,120
same,"Myt 1, normalized fold change after GAPDH calibration",[6]; Bergamottin 20 μM,259
same,"P-Wee1, normalized fold change after GAPDH calibration",[6]; Bergamottin 20 μM,80
same,"P-cdc2, normalized fold change after GAPDH calibration",[6]; Bergamottin 20 μM,14
same,"P-histone H3, normalized fold change after GAPDH calibration",[6]; Bergamottin 20 μM,130
same,"p21, normalized fold change after GAPDH calibration",[6]; Bergamottin 20 μM,139
same,"p27, normalized fold change after GAPDH calibration",[6]; Bergamottin 20 μM,158
same,"CDK2, normalized fold change after GAPDH calibration",[6]; Bergamottin 30 μM,77
same,"CDK4, normalized fold change after GAPDH calibration",[6]; Bergamottin 30 μM,81
same,"CDK6, normalized fold change after GAPDH calibration",[6]; Bergamottin 30 μM,98
same,"Cyclin A, normalized fold change after GAPDH calibration",[6]; Bergamottin 30 μM,58
same,"Cyclin B1, normalized fold change after GAPDH calibration",[6]; Bergamottin 30 μM,42
same,"Cyclin D1, normalized fold change after GAPDH calibration",[6]; Bergamottin 30 μM,110
same,"Cyclin D3, normalized fold change after GAPDH calibration",[6]; Bergamottin 30 μM,49
same,"Cyclin E, normalized fold change after GAPDH calibration",[6]; Bergamottin 30 μM,87
same,"Myt 1, normalized fold change after GAPDH calibration",[6]; Bergamottin 30 μM,451
same,"P-Wee1, normalized fold change after GAPDH calibration",[6]; Bergamottin 30 μM,87
same,"P-cdc2, normalized fold change after GAPDH calibration",[6]; Bergamottin 30 μM,15
same,"P-histone H3, normalized fold change after GAPDH calibration",[6]; Bergamottin 30 μM,152
same,"p21, normalized fold change after GAPDH calibration",[6]; Bergamottin 30 μM,126
same,"p27, normalized fold change after GAPDH calibration",[6]; Bergamottin 30 μM,143
same,CDK4 level (western blot),"[6]; low dose 5 and 10 μM, 96 hrs.",did not observe any significant change
same,CDK6 level (western blot),"[6]; low dose 5 and 10 μM, 96 hrs.",did not observe any significant change
same,cdc-2 phosphorylation (western blot),"[6]; low dose 5 and 10 μM, 96 hrs.",Decreased cdc-2 phosphorylation
same,cyclin B1 level (western blot),"[6]; low dose 5 and 10 μM, 96 hrs.",lower
same,cyclin D3 level (western blot),"[6]; low dose 5 and 10 μM, 96 hrs.",lower
